Results from ChEMBL document CHEMBL6083203, “Discovery and optimisation of pyrazolo[1,5-a]pyrimidines as aryl hydrocarbon receptor antagonists” (RSC Med Chem, 2024).

Tests used:
[1] = target: T1, Aryl hydrocarbon receptor (Mus musculus, UniProt P30561); experiment: Antagonist activity at AhR receptor in TCDD-stimulated mouse CD34-positive cell assessed as decrease in CYP1B1 mRNA expression
T1 sequence (P30561 whole entry): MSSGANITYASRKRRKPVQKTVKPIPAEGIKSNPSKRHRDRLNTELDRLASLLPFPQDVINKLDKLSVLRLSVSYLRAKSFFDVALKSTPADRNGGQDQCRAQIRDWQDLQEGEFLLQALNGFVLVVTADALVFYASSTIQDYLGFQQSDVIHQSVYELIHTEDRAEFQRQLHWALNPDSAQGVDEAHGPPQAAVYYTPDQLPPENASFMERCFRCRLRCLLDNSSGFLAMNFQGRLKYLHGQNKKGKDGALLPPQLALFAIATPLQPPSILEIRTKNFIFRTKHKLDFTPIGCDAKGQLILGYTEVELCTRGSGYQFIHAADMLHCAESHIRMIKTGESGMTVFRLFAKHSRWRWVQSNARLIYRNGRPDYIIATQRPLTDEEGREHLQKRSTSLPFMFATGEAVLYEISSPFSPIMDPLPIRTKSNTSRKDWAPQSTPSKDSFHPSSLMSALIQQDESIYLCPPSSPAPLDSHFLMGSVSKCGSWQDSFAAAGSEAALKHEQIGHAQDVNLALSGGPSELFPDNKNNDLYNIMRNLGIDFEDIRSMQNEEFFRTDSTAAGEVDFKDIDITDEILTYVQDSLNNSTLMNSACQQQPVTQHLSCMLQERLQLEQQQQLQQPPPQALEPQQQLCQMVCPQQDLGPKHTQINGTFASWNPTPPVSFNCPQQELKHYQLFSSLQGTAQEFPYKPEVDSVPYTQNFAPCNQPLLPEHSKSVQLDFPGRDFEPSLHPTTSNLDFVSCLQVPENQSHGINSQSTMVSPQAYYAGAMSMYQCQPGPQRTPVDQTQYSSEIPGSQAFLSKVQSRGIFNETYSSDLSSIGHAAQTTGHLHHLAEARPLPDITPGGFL

[2] = target: T2, Aryl hydrocarbon receptor (Homo sapiens, UniProt P35869)
T2 sequence (P35869 whole entry): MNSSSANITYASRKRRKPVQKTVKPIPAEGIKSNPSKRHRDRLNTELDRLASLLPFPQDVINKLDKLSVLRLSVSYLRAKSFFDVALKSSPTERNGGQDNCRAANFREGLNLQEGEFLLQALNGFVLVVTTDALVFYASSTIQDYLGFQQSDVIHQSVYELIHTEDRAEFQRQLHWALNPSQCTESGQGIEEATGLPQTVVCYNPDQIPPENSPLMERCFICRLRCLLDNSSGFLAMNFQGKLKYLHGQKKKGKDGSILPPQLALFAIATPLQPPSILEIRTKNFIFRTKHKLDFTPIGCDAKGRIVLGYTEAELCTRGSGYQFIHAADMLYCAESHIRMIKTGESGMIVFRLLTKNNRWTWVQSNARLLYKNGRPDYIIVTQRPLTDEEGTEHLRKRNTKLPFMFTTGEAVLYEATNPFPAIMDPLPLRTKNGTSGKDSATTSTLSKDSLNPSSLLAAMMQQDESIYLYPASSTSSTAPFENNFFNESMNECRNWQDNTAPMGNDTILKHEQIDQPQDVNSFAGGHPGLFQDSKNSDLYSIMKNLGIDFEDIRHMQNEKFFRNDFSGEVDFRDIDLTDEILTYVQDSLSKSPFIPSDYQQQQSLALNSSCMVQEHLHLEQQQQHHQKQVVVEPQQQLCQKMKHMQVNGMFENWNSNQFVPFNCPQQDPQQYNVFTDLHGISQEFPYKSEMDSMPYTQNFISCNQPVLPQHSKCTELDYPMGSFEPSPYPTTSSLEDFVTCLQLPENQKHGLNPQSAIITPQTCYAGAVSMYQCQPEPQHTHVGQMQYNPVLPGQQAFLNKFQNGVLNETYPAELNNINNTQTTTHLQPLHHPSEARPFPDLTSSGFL
Description: Antagonist activity at AHR receptor in human Huh-7 cells transfected with CYP1A1 regulated luciferase reporter gene assessed as inhibition of TCDD-induced receptor activation incubated for 20 hrs by dual luciferase assay

[3] = target: T2, Aryl hydrocarbon receptor; conditions: Huh-7, human, 20 h, read-out: Activity
Description: Antagonist activity at AHR receptor in human Huh-7 cells transfected with CYP1A1 regulated luciferase reporter gene assessed as inhibition of TCDD-induced receptor activation at 25 uM incubated for 20 hrs by dual luciferase assay relative to control

[4] = target: T2, Aryl hydrocarbon receptor; conditions: Huh-7, human, 20 h, read-out: Activity; remark: listed apart in the source
Description: Antagonist activity at AHR receptor in human Huh-7 cells transfected with CYP1A1 regulated luciferase reporter gene assessed as inhibition of receptor activation at 25 uM incubated for 20 hrs by dual luciferase assay relative to control

Row | IC50 [2] [nM] | SMILES | further results
1 | – | CC(C)n1cnc2c(NCCc3ccc(O)cc3)nc(-c3csc4ccccc34)nc21 | IC50 [1]: 127 nM
2 | 121 | c1ccc(-c2cc(Nc3cnc[nH]3)n3ncc(-c4ccccc4)c3n2)cc1 | –
3 | 320 | COc1ccccc1-c1cnn2c(NCCOCCO)cc(-c3ccccc3)nc12 | –
4 | 29500 | CC(C)(C)c1cccc(-c2cnn3c(NCCOCCO)cc(-c4ccccc4)nc23)c1 | –
5 | 396 | OCCOCCNc1cc(-c2ccccc2)nc2c(-c3ccccc3OC(F)(F)F)cnn12 | –
6 | – | NC(=O)C1CN(C(=O)c2cc(-c3ccc(Cl)cc3)nn2-c2ccccc2)c2ccccc2O1 (configuration not stated) | inhibition at 25 µM [3]: 23.6%; inhibition at 25 µM [4]: 28%
7 | 189 | Cc1ccc(-c2cc(NCCOCCO)n3ncc(-c4ccccc4)c3n2)cc1 | –
8 | – | C=CCn1c(SC(C)C(=O)NC(N)=O)nnc1-c1cc2c(s1)CCC(C(C)(C)C)C2 (configuration not stated) | inhibition at 25 µM [3]: 21%; inhibition at 25 µM [4]: 1.4%
9 | 359 | COC(=O)c1ccccc1-c1cnn2c(NCCOCCO)cc(-c3ccccc3)nc12 | –
10 | 654 | CS(=O)(=O)Nc1ccccc1-c1cnn2c(NCCOCCO)cc(-c3ccccc3)nc12 | –
